Measurements: patent US9096687B2, “Inhibition of inflammation using antagonists of MUC1” (DANA-FARBER CANCER INSTITUTE, INC., priority 2009, dated 2015)
Square brackets hold non-standard residues; d marks the D form. Ends that are not written are not given here.

Legend:
[1] = system: MUC1-C levels in the nucleus; assay: MUC1-C levels in the nucleus after peptide uptake; type: cell-based; settings: after uptake of the peptide
Text: (§1) Previous Studies. Overexpression of MUC1 is sufficient for the induction of anchorage-independent growth and tumorigenicity (Li et al., 2003a; Huang et al., 2003; Huang et al., 2005). […] MUC1 forms oligomers and the CQC motif is necessary for this oligomerization (Leng et al., 2007). Moreover, oligomer formation is necessary for targeting of the MUC1-C subunit to the nucleus (Leng et al., 2007). The inventors synthesized a MUC1-derived peptide that contains the CQC motif and a poly-Arg cell delivery domain for entry into cells.

[2] = system: carcinoma cells overexpressing MUC1; assay: Growth arrest and necrosis of cells exposed to peptide; type: cell-based; settings: for growth arrest and induction of necrosis: exposure of cells
Text: as §1

[3] = target: T1, IL-6-induced interaction between MUC1-C and STAT3 (Homo sapiens, UniProt P15941); assay: Anti-STAT3 co-immunoprecipitation from IL-6-stimulated MCF-10A cells; type: cell-based; parameters: dose or concentration left out as unconfirmed; settings: peptide added each 24 h for 72 h
T1 construct: C-terminal subunit (MUC1 C-ter, MUC1-C), which includes a 58 amino acid extracellular region; endogenous in cells; host or cells: MCF-10A
T1 sequence (P15941 1098-1255 limits assumed): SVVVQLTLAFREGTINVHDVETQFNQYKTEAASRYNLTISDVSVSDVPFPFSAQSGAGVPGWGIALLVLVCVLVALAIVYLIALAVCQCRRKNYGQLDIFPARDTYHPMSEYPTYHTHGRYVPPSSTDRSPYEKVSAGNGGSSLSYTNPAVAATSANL

[4] = target: T2, interaction between MUC1-CD and STAT3 (Homo sapiens, UniProt P15941); assay: In vitro binding of GST-STAT3 to purified MUC1-CD; settings: 1 h at room temperature
T2 construct: a GST fusion protein containing the 72 amino acid MUC1-CD; GST (cleaved yes); made in house
T2 sequence (P15941 1184-1255): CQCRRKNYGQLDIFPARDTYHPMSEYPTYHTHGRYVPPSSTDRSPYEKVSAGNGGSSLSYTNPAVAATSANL

tumor growth = assay: Administration to tumor bearing mice
Text: as §1

[5] = system: STAT3 and MUC1-C on the MUC1 promoter; assay: ChIP of MUC1 promoter STAT binding site in IL-6-stimulated MCF-10A cells; type: cell-based, Human; settings: 5 mM peptide added each 24 h for 72 h
[6] = target: T3, TNFα-induced interaction between MUC1-C and NF-κB p65 (Homo sapiens, UniProt P15941); assay: Anti-p65 co-immunoprecipitation from TNFα-stimulated MCF-10A cells; type: cell-based; settings: 5 μM peptide added each 24 h for 72 h
T3 construct: C-terminal subunit (MUC1 C-ter, MUC1-C), which includes a 58 amino acid extracellular region; endogenous in cells; host or cells: MCF-10A
T3 sequence (P15941 1098-1255 limits assumed): T1 sequence (P15941 1098-1255 limits assumed)
Description: Cell Culture. Human ZR-75-1 breast cancer and U-937 leukemia cells were grown in RPMI 1640 medium containing 10% heat-inactivated fetal bovine serum (FBS), 100 units/ml penicillin, 100 μg/ml streptomycin and 2 mM L-glutamine. Human HeLa cervical and MCF-7 breast carcinoma cells were grown in Dulbecco's modified Eagle's medium with 10% FBS, antibiotics and L-glutamine. Human MCF-10A breast epithelial cells were grown in mammary epithelial cell growth medium (MEGM; Lonza, Walkersville, Md.) and treated with 20 ng/ml TNFα (BD Biosciences, San Jose, Calif.). Transfection of the MCF-10A cells with siRNA pools (Dharmacon, Lafayette, Colo.) was performed in the presence of Lipofectamine 2000 (Invitrogen, Carlsbad, Calif.). Cells were treated with 5 μM MUC1/CQC and MUC1/AQA peptides synthesized by the MIT Biopolymer Laboratory (Cambridge, Mass.).
Immunoprecipitation and immunoblotting. Lysates from sub-confluent cells were prepared as described (Ren et al., 2004). Soluble proteins were precipitated with anti-NF-κB p65 (Santa Cruz Biotechnology, Santa Cruz, Calif.). […] Immune complexes were detected with horseradish peroxidase-conjugated secondary antibodies (GE Healthcare Biosciences, Piscataway, N.J.) and enhanced chemiluminescence (GE Healthcare).

MUC1 promoter = assay: Constitutive activation of the MUC1 promoter in breast cancer cells; type: cell-based
Description: (§2) MUC1-C Promotes STAT3-Mediated Transcription. […] In concert with these observations, silencing MUC1 in breast cancer cells was associated with decreases in (i) constitutive STAT3 occupancy on the STAT binding site, and (ii) constitutive activation of the MUC1 promoter. To provide further support for an auto-inductive loop, studies were performed with GO-201, an inhibitor of MUC1-C oligomerization (Raina, 2009). […] Moreover, GO-201 blocked IL-6 induced activation of the MUC1 promoter. […] These findings thus provide support for the potential importance of the MUC1-C-STAT3 interaction in targeting STAT3 to the MUC1 promoter and promoting activation of the MUC1 gene in an auto-inductive loop (FIG. 7D).

[7] = system: MUC1-C and NF-κB p65 occupancy of the NF-κB binding motif in the MUC1 promoter; assay: ChIP of MUC1 promoter NF-κB binding motif in TNFα-stimulated MCF-10A cells; settings: 5 μM peptide added each 24 h for 72 h
Description: MCF-10A cells were left untreated or stimulated with TNFα in the presence of 5 μM MUC1/CQC or MUC1/AQA peptide added each 24 h for 72 h. […] (FIGS. 6B and 6C) MCF-10A cells were left untreated or stimulated with TNFα in the presence of 5 μM MUC1/CQC or MUC1/AQA peptide added each 24 h for 72 h. Soluble chromatin was precipitated with anti-MUC1-C (left) or anti-p65 (right) and then analyzed for MUC1 NF-κB binding motif promoter sequences (FIG. 6B).
ChIP Assays. Soluble chromatin was prepared as described (Wei et al., 2006) and precipitated with anti-p65, anti-MUC1-C or a control non-immune IgG. […] For PCR, 2 μl from a 50 μl DNA extraction was used with 25-35 cycles of amplification.

[8] = system: TNFα-induced MUC1 and Bcl-xL expression; assay: Immunoblot of lysates from TNFα-stimulated MCF-10A cells; type: cell-based, Human; settings: 5 μM peptide added each 24 h for 72 h
Description: Immunoprecipitation and immunoblotting. Lysates from sub-confluent cells were prepared as described (Ren et al., 2004). Soluble proteins were precipitated with anti-NF-κB p65 (Santa Cruz Biotechnology, Santa Cruz, Calif.). The immunoprecipitates and cell lysates were subjected to immunoblotting with anti-p65, anti-p65 (180-306) (Millipore, Billerica, Mass.) anti-MUC1-C (Ab5; Lab Vision, Fremont, Calif.), anti-IκBα (Santa Cruz Biotechnology), anti-Bcl-xL (Santa Cruz Biotechnology) and anti-α-actin (Sigma, St. Louis, Mo.). Immune complexes were detected with horseradish peroxidase-conjugated secondary antibodies (GE Healthcare Biosciences, Piscataway, N.J.) and enhanced chemiluminescence (GE Healthcare).

pMUC1-Luc reporter = pMUC1-Luc reporter assay in IL-6-stimulated MCF-10A cells; type: cell-based, Human
Description: Luciferase Assays. Cells were transfected with NFκB-Luc (Ahmad et al., 2007) or pMUC1-Luc (Yin et al., 2003) and SV-40-Renilla-Luc (Promega, Madison, Wis.) in the presence of Lipofectamine. After 48 h, the cells were lysed in passive lysis buffer. Lysates were analyzed for firefly and Renilla luciferase activities using the dual luciferase assay kit (Promega).

[9] = target: T4, interaction between MUC1-CD and NF-κB p65 (Homo sapiens, UniProt P15941); assay: In vitro binding of GST-MUC1-CD to purified NF-κB p65 (glutathione bead adsorbates, anti-p65 immunoblot); settings: 1 h at room temperature
T4 construct: a GST fusion protein containing the 72 amino acid MUC1-CD; made in house
T4 sequence (P15941 1184-1255): T2 sequence (P15941 1184-1255)
Description: In Vitro Binding Assays. GST, GST-MUC1-CD, GST-MUC1-CD(1-45) and GST-MUC1-CD(46-72) were prepared as described (Ahmad et al., 2007) and incubated with p65 and certain p65 deletion mutants. Purified GST-MUC1-CD was cleaved with thrombin to remove the GST moiety. GST-IκBα (Millipore, Billerica, Mass.) was incubated with p65(186-306) for 2 h at 25° C. in the absence and presence of purified MUC1-CD. Adsorbates to glutathione-conjugated beads were analyzed by immunoblotting.

[10] = system: MUC1-C and STAT3 occupancy of the MUC1 promoter; assay: Constitutive occupancy of the MUC1 promoter in breast cancer cells; type: cell-based
Description: as §2

MUC1-CD oligomerization = target: T5, MUC1-CD oligomerization (Homo sapiens, UniProt P15941); assay: Oligomerization of MUC1-CD in vitro; type: biochemical
T5 construct: contains a 72-amino acid cytoplasmic domain (MUC1-CD)
T5 sequence (P15941 1184-1255): T2 sequence (P15941 1184-1255)
Text: as §1

severe sepsis = settings: decreased from about 31%; cited from earlier work
[11] = system: ZR-75-1 breast carcinoma cells; assay: Proliferation of ZR-75-1 breast carcinoma cells (trypan blue exclusion); type: cell-based, Human; settings: 5 μM every day for 4 days
Description: FIG. 17: Effect of different MUC1-CD CQC-region peptides on the growth of hormone-dependent breast carcinoma cells. To determine whether exposure to different MUC1-CD CQC-region containing peptides affect growth, ZR-75-1 breast carcinoma cells were treated with 5 μM of different peptides for 4 days and monitored for cell proliferation.
FIG. 21: Effect of Shorter GO-203 peptides on proliferation of ZR-75-1 Breast Cancer Cells. Human ZR-75-1 breast cancer cells were grown in RPMI1640 supplemented with 10% heat-inactivated fetal bovine serum, 100 units/ml penicillin, 100 μg/ml streptomycin. Cells were treated with different peptides at 5 μM every day for four days and cell viability was determined by trypan blue exclusion.
Multiple tumor cell lines (ZR-75-1 Hormone-dependent Breast Carcinoma; MDA-MB-231 Triple-Negative Breast Carcinoma; A549 Non-small Cell Lung Carcinoma; H-1975 Non-small Cell Lung Carcinoma) were grown in RPMI-1640 supplemented with 10% heat-inactivated fetal bovine serum, 100 units/mL penicillin and 100 μg/mL streptomycin and 2 mmol/L L-glutamine. Cells were treated separately with 5 μM of different analogs of GO-203 (FIG. 15) for 3 to 7 days and viability was determined by trypan blue exclusion. The proliferation of different cell lines was compared with cells treated with vehicle only.

[12] = system: multiple carcinoma cell lines; assay: Growth and killing of carcinoma cell lines by L-amino acid MUC1 C-terminal peptides; type: cell-based
Text: GO-203 analogs. The inventors' recent studies have shown that a MUC1 C-terminal peptide (CQCRRKNYGQLDIFP; SEQ ID NO:3) is active in inhibiting growth of multiple carcinoma cell lines. […] However, these MUC1-C-terminal peptides consists of L-amino acids. […] Consequently, they have generated an all-dextro form of the above described shorter MUC1 C-terminal peptide, in which the L-amino acids were changed to D-amino acids (GO-203). Moreover, to determine the minimum amino acid residues from the MUC1-C-terminal region that are required to retain the cell killing activity, they have also generated many different versions of GO-203 as described in FIG. 15.

[13] = system: H-1975 non-small cell lung carcinoma cell line; settings: H-1975 cells, 5 μM, 3 days
Description: H-1975 non-small cell lung carcinoma cell line was grown in DMEM with 10% heat-inactivated fetal bovine serum with 100 units/mL penicillin, 100 μg/ml streptomycin and 2 mmol/L L-glutamine. Cells were re-seeded one day before treatments. Cells were treated with 5 μM GO-200-2B for 3 days and cell viability was determined by trypan blue exclusion.
Moreover, another non-small cell lung carcinoma cell line, H-1975, was treated with 5 μM GO-200-2B for 3 days and monitored for cell growth as well as cell death.

[14] = tumor bearing mice, 10 and 30 mg/kg/d for 21 d

MUC1/CQC: peptide corresponding to MUC1-CD(1-15) (SEQ ID NO:3, CQCRRKNYGQLDIFP) with poly D-arginine transduction domain; inhibitor of MUC1-C oligomerization (cysteine pairing not given here; also: poly D-arginine transduction domain, not placed)
MUC1-C levels in the nucleus [1]: down-regulation
selectivity of dominant-negative activity [2]: selective for carcinoma cells overexpressing MUC1
growth arrest and induction of necrosis [2]: growth arrest and the induction of necrosis
IL-6-induced interaction between MUC1-C and STAT3 [3]: blocked
interaction between MUC1-CD and STAT3 in vitro [4]: blocked
tumor growth following treatment (tumor growth; 50 mg/kg/d for 7 d): tumor growth remains arrested for extended periods
tolerability (tumor growth; [14]): well-tolerated without apparent acute toxicities
tumor growth (tumor growth; [14]): effective in abrogating tumor growth
IL-6-induced targeting of STAT3 and MUC1-C to the MUC1 promoter [5]: inhibited
TNFα-induced interaction between MUC1-C and NF-κB p65 [6]: blocked
constitutive activation of the MUC1 promoter (MUC1 promoter): inhibits
TNFα-induced MUC1-C and NF-κB p65 occupancy of the NF-κB binding motif [7]: decreased
TNFα-induced Bcl-xL expression [8]: attenuated
TNFα-induced MUC1 expression [8]: decreased
IL-6-induced activation of the pMUC1-Luc reporter (pMUC1-Luc reporter): attenuated
interaction between MUC1-CD and NF-κB p65 in vitro [9]: blocked the interaction
constitutive occupancy of the MUC1 promoter by MUC1-C and STAT3 [10]: inhibits
oligomerization of MUC1-CD in vitro (MUC1-CD oligomerization): inhibits

drotrecogin alfa
mortality (severe sepsis): about 25%

GO-208: shorter GO-203 peptide, SEQ ID NO:50 (CQCRR)
growth of ZR-75-1 breast carcinoma cells [11]: significant inhibition of growth

GO-209: shorter GO-203 peptide, SEQ ID NO:54 (CQCR)
growth of ZR-75-1 breast carcinoma cells [11]: significant inhibition of growth

CQCRRKNYGQLDIFP
inhibiting growth of multiple carcinoma cell lines [12]: active

CQCRRKN [shorter MUC1-C-terminal peptide consisting of L-amino acids]
killing tumor cells [12]: active

GO-207: shorter GO-203 peptide, SEQ ID NO:4 (CQCRRK)
growth of ZR-75-1 breast carcinoma cells [11]: significant inhibition of growth

MUC1/AQA: control peptide in which the CQC motif was mutated to AQA (SEQ ID NO:62), with poly D-arginine transduction domain (AQARRKNYGQLDIFP; also: poly D-arginine transduction domain, not placed) [reference compound]
growth arrest and induction of necrosis [2]: not
IL-6-induced interaction between MUC1-C and STAT3 [3]: not
interaction between MUC1-CD and STAT3 in vitro [4]: not
interaction between MUC1-CD and NF-κB p65 in vitro [9]: little if any effect
oligomerization of MUC1-CD in vitro (MUC1-CD oligomerization): did not

CC(=O)N[C@@H](C)C(=O)N[C@@H](CCCCN)C(=O)N[C@@H](CCCCN)C(=O)N[C@@H](Cc1ccc(O)cc1)C(=O)N[C@@H](CC(C)C)C(=O)N[C@@]1(C)CCCC=CCCCC2(CCCC=CCCC[C@@](C)(C(=O)N[C@@H](CCCNC(=N)N)C(=O)N[C@@H](CCCCN)C(=O)N[C@@H](CC(N)=O)C(=O)N[C@@H](Cc3ccc(O)cc3)C(N)=O)NC(=O)[C@H](CS)NC(=O)[C@H](CCC(N)=O)NC(=O)[C@H](CS)NC2=O)NC(=O)[C@H](C)NC(=O)[C@H](CC(C)C)NC(=O)[C@H](C)NC1=O (stereo partly shown) [GO-200-2B]
induction of cell death [13]: significant induction of cell death

GO-203: all-dextro form of the shorter MUC1 C-terminal peptide CQCRRKN (SEQ ID NO:53), L-amino acids changed to D-amino acids ([dC][dQ][dC][dR][dR][dK][dN]; cysteine pairing not given here)
growth of ZR-75-1 breast carcinoma cells [11]: significant inhibition of growth
